Laboratory results published in patent publication US20230072683A1, “PYRIDO-PYRIMIDIN DERIVATIVES AND PHARMACEUTICAL COMPOSITION, FOR USE IN PREVENTING OR TREATING PI3 KINASE RELATED DISEASES, COMPRISING SAME AS ACTIVE INGREDIENT” (BORYUNG PHARMACEUTICAL CO., LTD, priority 2019, published 2023).

How the values were obtained:
[1] = target: PI3K-δ (PI3K(p1108/p857) (h)) (Homo sapiens, UniProt O00329); assay: Evaluation of inhibitory activity against PI3K-δ (HTRF kinase assay); type: biochemical; conditions: for inhibition at 0.01 µM: compound concentration 0.01 μM, read-out: EXP_VALUE(% Inhibition) PI3K-δ 0.01 μM; for inhibition at 0.1 µM: compound concentration 0.1 μM, read-out: EXP_VALUE(% Inhibition) PI3K-δ 0.1 μM
PI3K-δ (PI3K(p1108/p857) (h)), sequence (O00329 whole entry): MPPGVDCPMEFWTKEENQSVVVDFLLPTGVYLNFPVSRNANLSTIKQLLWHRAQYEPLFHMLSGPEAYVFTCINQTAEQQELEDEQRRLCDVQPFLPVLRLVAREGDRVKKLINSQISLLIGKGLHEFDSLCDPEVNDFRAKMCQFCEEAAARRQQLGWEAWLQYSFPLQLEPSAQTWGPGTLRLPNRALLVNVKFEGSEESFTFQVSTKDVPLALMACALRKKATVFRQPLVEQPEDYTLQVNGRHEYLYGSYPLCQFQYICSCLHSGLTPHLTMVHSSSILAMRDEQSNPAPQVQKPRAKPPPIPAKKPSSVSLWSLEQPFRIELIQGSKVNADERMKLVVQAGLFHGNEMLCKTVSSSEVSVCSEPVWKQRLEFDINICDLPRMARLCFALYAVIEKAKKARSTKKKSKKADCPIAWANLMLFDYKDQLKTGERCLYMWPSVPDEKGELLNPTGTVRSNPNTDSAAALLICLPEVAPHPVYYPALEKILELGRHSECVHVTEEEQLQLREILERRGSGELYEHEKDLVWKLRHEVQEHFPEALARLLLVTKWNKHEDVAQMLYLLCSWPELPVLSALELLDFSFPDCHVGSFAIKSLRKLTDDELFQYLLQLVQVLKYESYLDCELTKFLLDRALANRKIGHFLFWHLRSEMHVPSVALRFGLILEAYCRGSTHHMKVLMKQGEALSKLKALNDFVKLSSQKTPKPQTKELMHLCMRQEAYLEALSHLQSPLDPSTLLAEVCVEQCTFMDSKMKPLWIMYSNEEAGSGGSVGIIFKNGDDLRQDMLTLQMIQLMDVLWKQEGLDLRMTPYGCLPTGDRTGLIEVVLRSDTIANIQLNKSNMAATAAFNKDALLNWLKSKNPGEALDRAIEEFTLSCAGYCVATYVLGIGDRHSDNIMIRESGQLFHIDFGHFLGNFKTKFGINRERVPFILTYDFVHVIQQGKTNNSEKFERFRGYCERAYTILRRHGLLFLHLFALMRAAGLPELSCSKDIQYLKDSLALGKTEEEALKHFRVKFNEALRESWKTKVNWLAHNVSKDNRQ
PI3K-δ (PI3K(p1108/p857) (h)), sequence (P27986 whole entry partner): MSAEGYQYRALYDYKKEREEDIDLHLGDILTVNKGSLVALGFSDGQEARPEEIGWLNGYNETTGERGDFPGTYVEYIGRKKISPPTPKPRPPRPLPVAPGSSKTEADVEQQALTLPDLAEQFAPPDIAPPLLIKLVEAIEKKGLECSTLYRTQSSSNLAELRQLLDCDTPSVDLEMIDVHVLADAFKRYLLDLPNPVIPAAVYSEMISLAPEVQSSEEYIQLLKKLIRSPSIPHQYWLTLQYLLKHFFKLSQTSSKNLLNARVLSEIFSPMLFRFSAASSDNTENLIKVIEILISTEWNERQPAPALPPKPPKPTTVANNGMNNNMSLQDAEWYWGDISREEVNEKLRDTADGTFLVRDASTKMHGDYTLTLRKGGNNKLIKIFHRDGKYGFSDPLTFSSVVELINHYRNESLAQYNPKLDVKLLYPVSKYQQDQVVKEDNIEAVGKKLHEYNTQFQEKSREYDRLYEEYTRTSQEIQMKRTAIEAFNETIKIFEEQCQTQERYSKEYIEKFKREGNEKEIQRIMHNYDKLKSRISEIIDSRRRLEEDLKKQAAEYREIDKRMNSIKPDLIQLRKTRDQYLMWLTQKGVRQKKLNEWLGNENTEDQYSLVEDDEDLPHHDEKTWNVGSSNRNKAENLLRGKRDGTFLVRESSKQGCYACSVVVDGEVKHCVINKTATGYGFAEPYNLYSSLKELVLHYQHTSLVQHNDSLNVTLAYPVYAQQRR
Method: <Experimental Example 1> Evaluation of Inhibitory Activity Properties Against PI3K-δ
The following experiments were performed to verify the inhibitory activity against PI3K-δ with regard to each of the compounds of Examples 1 to 441 according to the present invention.
PI3K(p1108/p857) (h) was incubated in assay buffer comprising 10 μM phosphatidylinositol-4,5-bisphosphate and Mg/ATP (at a concentration as required). The reaction was initiated by the addition of a Mg/ATP mixture, and after incubation for 30 minutes at room temperature, a stop solution comprising EDTA and phosphatidylinositol-3,4,5-triphosphate was added to stop the reaction and carry out biotinylation.
A detection buffer comprising Eu (europium)-labelled anti-GST monoclonal antibody, GST-tagged GRP1 PH domain and streptavidin-allophycocyanin was added. A plate was read in a time-resolved fluorescence mode and a homogeneous time-resolved fluorescence (HTRF) signal was determined according to HTRF=10000×(Em 665 nm/Em 620 nm).

DNA-PK(h) = DNA-PK(h) (Homo sapiens, UniProt P78527); assay: Evaluation of inhibitory activity against DNA-PK (HTRF kinase assay, GST-cMyc-p53 substrate); type: biochemical; conditions: for inhibition at 0.01 µM: compound concentration 0.01 μM, read-out: EXP_VALUE(% Inhibition) DNA-PK(h) 0.01 μM; for inhibition at 0.1 µM: compound concentration 0.1 μM, read-out: EXP_VALUE(% Inhibition) DNA-PK(h) 0.1 μM
Method: <Experimental Example 2> Evaluation of Inhibitory Activity Properties Against DNA-PK
The following experiments were performed to verify the inhibitory activity against DNA-PK with regard to each of the compounds of Examples 1 to 441 according to the present invention.
DNA-PK(h) was subjected to an isothermal treatment in an assay buffer comprising […] GST-cMyc-p53 and Mg/ATP (at a concentration as required). The reaction was initiated by the addition of a Mg/ATP mixture, and after incubation for 30 minutes at room temperature, a stop solution comprising EDTA was added to stop the reaction. A detection buffer comprising d2-labelled anti-GST monoclonal antibody and Europium-labelled anti-phospho Ser15 antibody for phosphorylated p53 was added. A plate was read in a time-resolved fluorescence mode and a homogeneous time-resolved fluorescence (HTRF) signal was determined according to HTRF=10000×(Em 665 nm/Em 620 nm).

| SMILES | inhibition at 0.01 µM [1] [%] | inhibition at 0.1 µM [1] [%] | inhibition at 0.01 µM (DNA-PK(h)) [%] | inhibition at 0.1 µM (DNA-PK(h)) [%] |
| --- | --- | --- | --- | --- |
| Cc1ccc(-c2cccc3c(Br)c([C@H](C)Nc4ncnc5[nH]ccc(=O)c45)n(-c4ccccc4)c(=O)c23)cn1 [Example 17, (S)-4-((1-(4-bromo-8-(6-methylpyridin-3-yl)-1-oxo-2-phenyl-1,2-dihydroisoquinolin-3-yl)ethyl)amino)pyrido[2,3-d]pyrimidin-5(8H)-one] | 99 | 97 | 70 | 94 |
| C[C@H](Nc1ncnc2[nH]ccc(=O)c12)c1c(Br)c2cccc(-c3ccc(F)cc3)c2c(=O)n1-c1ccccc1 [Example 18, (S)-4-((1-(4-bromo-8-(4-fluorophenyl)-1-oxo-2-phenyl-1,2-dihydroisoquinolin-3-yl)ethyl)amino)pyrido[2,3-d]pyrimidin-5(8H)-one] | 80 | 96 | 75 | 98 |
| C[C@H](Nc1ncnc2[nH]ccc(=O)c12)c1c(Br)c2cccc(-c3cnn(C)c3)c2c(=O)n1-c1ccccc1 [Example 19, (S)-4-((1-(4-bromo-8-(1-methyl-1H-pyrazol-4-yl)-1-oxo-2-phenyl-1,2-dihydroisoquinolin-3-yl)ethyl)amino)pyrido[2,3-d]pyrimidin-5(8H)-one] | 89 | 102 | 78 | 98 |
| C[C@H](Nc1ncnc2[nH]ccc(=O)c12)c1cc2cccc(-c3ccc(N(C)C)cc3)c2c(=O)n1-c1ccccc1 [Example 20, (S)-4-((1-(8-(4-(dimethylamino)phenyl)-1-oxo-2-phenyl-1,2-dihydroisoquinolin-3-yl)ethyl)amino)pyrido[2,3-d]pyrimidin-5(8H)-one] | 67 | 95 | 3 | 55 |
| C[C@H](Nc1ncnc2[nH]ccc(=O)c12)c1c(Cl)c2cccc(-c3ccc4[nH]c(=O)[nH]c4c3)c2c(=O)n1-c1ccccc1 [Example 21, (S)-4-((1-(4-chloro-1-oxo-8-(2-oxo-2,3-dihydro-1H-benzo[d]imidazol-5-yl)-2-phenyl-1,2-dihydroisoquinolin-3-yl)ethyl)amino)pyrido[2,3-d]pyrimidin-5(8H)-one] | 90 | 99 | 69 | 95 |
| Cc1nc2ccc(-c3cccc4c(Cl)c([C@H](C)Nc5ncnc6[nH]ccc(=O)c56)n(-c5ccccc5)c(=O)c34)cc2o1 [Example 22, (S)-4-((1-(4-chloro-8-(2-methylbenzo[d]oxazol-6-yl)-1-oxo-2-phenyl-1,2-dihydroisoquinolin-3-yl)ethyl)amino)pyrido[2,3-d]pyrimidin-5(8H)-one] | 89 | 93 | 69 | 97 |
| C[C@H](Nc1ncnc2[nH]ccc(=O)c12)c1cc2cccc(-c3ccc(C#N)cc3)c2c(=O)n1-c1ccccc1 [Example 23, (S)-4-(1-oxo-3-(1-((5-oxo-5,8-dihydropyrido[2,3-d]pyrimidin-4-yl)amino)ethyl)-2-phenyl-1,2-dihydroisoquinolin-8-yl)benzonitrile] | 82 | 96 | 38 | 85 |
| C[C@H](Nc1ncnc2[nH]ccc(=O)c12)c1c(Cl)c2cccc(-c3ccc4cnoc4c3)c2c(=O)n1-c1ccccc1 [Example 24, (S)-4-((1-(8-(benzo[d]isoxazol-6-yl)-4-chloro-1-oxo-2-phenyl-1,2-dihydroisoquinolin-3-yl)ethyl)amino)pyrido[2,3-d]pyrimidin-5(8H)-one] | 61 | – | 85 | – |
| C[C@H](Nc1ncnc2[nH]ccc(=O)c12)c1c(Cl)c2cccc(-c3cnc4[nH]ccc4c3)c2c(=O)n1-c1ccccc1 [Example 25, (S)-4-((1-(4-chloro-1-oxo-2-phenyl-8-(1H-pyrrolo[2,3-b]pyridin-5-yl)-1,2-dihydroisoquinolin-3-yl)ethyl)amino)pyrido[2,3-d]pyrimidin-5(8H)-one] | 6 | – | 7 | – |
| C[C@H](Nc1ncnc2[nH]ccc(=O)c12)c1c(Cl)c2cccc(-c3cnc(C(C)(C)O)nc3)c2c(=O)n1-c1ccccc1 [Example 26, (S)-4-((1-(4-chloro-8-(2-(2-hydroxypropan-2-yl)pyrimidin-5-yl)-1-oxo-2-phenyl-1,2-dihydroisoquinolin-3-yl)ethyl)amino)pyrido[2,3-d]pyrimidin-5(8H)-one] | 92 | – | 66 | – |
| C[C@H](Nc1ncnc2[nH]ccc(=O)c12)c1c(Cl)c2cccc(-c3cc4[nH]ncc4cn3)c2c(=O)n1-c1ccccc1 [Example 27, (S)-4-((1-(4-chloro-1-oxo-2-phenyl-8-(1H-pyrazolo[4,3-c]pyridin-6-yl)-1,2-dihydroisoquinolin-3-yl)ethyl)amino)pyrido[2,3-d]pyrimidin-5(8H)-one] | 76 | – | 34 | – |
| COc1ncc(-c2cccc3c(Cl)c([C@H](C)Nc4ncnc5[nH]ccc(=O)c45)n(-c4ccccc4)c(=O)c23)nc1OC [Example 28, (S)-4-((1-(4-chloro-8-(5,6-dimethoxypyrazin-2-yl)-1-oxo-2-phenyl-1,2-dihydroisoquinolin-3-yl)ethyl)amino)pyrido[2,3-d]pyrimidin-5(8H)-one] | 69 | – | 61 | – |
| C[C@H](Nc1ncnc2[nH]ccc(=O)c12)c1c(Cl)c2cccc(-c3ccc(-c4nccs4)cc3)c2c(=O)n1-c1ccccc1 [Example 29, (S)-4-((1-(4-chloro-1-oxo-2-phenyl-8-(4-(thiazol-2-yl)phenyl)-1,2-dihydroisoquinolin-3-yl)ethyl)amino)pyrido[2,3-d]pyrimidin-5(8H)-one] | 70 | – | 99 | – |
| COc1cnc(-c2cccc3c(Cl)c([C@H](C)Nc4ncnc5[nH]ccc(=O)c45)n(-c4ccccc4)c(=O)c23)nc1 [Example 30, (S)-4-((1-(4-chloro-8-(5-methoxypyrimidin-2-yl)-1-oxo-2-phenyl-1,2-dihydroisoquinolin-3-yl)ethyl)amino)pyrido[2,3-d]pyrimidin-5(8H)-one] | 12 | – | 101 | – |
| C[C@H](Nc1ncnc2[nH]ccc(=O)c12)c1c(Cl)c2cccc(-c3ccc(C#N)cn3)c2c(=O)n1-c1ccccc1 [Example 31, (S)-6-(4-chloro-1-oxo-3-(1-((5-oxo-5,8-dihydropyrido[2,3-d]pyrimidin-4-yl)amino)ethyl)-2-phenyl-1,2-dihydroisoquinolin-8-yl) nicotinonitrile] | 0 | – | 2 | – |
| C[C@H](Nc1ncnc2[nH]ccc(=O)c12)c1c(Cl)c2cccc(-c3ccc4ncncc4c3)c2c(=O)n1-c1ccccc1 [Example 32, (S)-4-((1-(4-chloro-1-oxo-2-phenyl-8-(quinazolin-6-yl)-1,2-dihydroisoquinolin-3-yl)ethyl)amino)pyrido[2,3-d]pyrimidin-5(8H)-one] | 96 | – | 75 | – |
| C[C@H](Nc1ncnc2[nH]ccc(=O)c12)c1c(Cl)c2cccc(-c3ccc(-c4ccon4)cc3)c2c(=O)n1-c1ccccc1 [Example 33, (S)-4-((1-(4-chloro-8-(4-(isoxazol-3-yl)phenyl)-1-oxo-2-phenyl-1,2-dihydroisoquinolin-3-yl)ethyl)amino)pyrido[2,3-d]pyrimidin-5(8H)-one] | 92 | – | 48 | – |
| C[C@H](Nc1ncnc2[nH]ccc(=O)c12)c1c(Cl)c2cccc(-c3ccc(C(C)(C)C)nc3)c2c(=O)n1-c1ccccc1 [Example 34, (S)-4-((1-(8-(6-(tert-butyl)pyridin-3-yl)-4-chloro-1-oxo-2-phenyl-1,2-dihydroisoquinolin-3-yl)ethyl)amino)pyrido[2,3-d]pyrimidin-5(8H)-one] | 74 | – | 56 | – |
| C[C@H](Nc1ncnc2[nH]ccc(=O)c12)c1c(Cl)c2cccc(-c3ncccn3)c2c(=O)n1-c1ccccc1 [Example 35, (S)-4-((1-(4-chloro-1-oxo-2-phenyl-8-(pyrimidin-2-yl)-1,2-dihydroisoquinolin-3-yl)ethyl)amino)pyrido[2,3-d]pyrimidin-5(8H)-one] | 21 | – | 7 | – |
| C[C@H](Nc1ncnc2[nH]ccc(=O)c12)c1c(Cl)c2cccc(-c3cc(O)c(O)c(F)c3)c2c(=O)n1-c1ccccc1 [Example 36, (S)-4-((1-(4-chloro-8-(3-fluoro-4,5-dihydroxyphenyl)-1-oxo-2-phenyl-1,2-dihydroisoquinolin-3-yl)ethyl)amino)pyrido[2,3-d]pyrimidin-5(8H)-one] | 74 | – | 34 | – |
